Test results as given in BindingDB's records for doi:10.3109/14756366.2011.645241 (Cairo University, 2013).

Experiments:
Cannabinoid receptor 1 = Cannabinoid receptor 1 (Homo sapiens, UniProt P21554); experiment: Cannabinoid Receptor Binding Assay
Procedure: (§1) Membranes from HEK-293 cells transfected with the human recombinant CB1 receptor(Bmax=2.5pmol/mg protein) and human recombinant CB2 receptor (B max=4.7 pmol/mgprotein) were incubated with [3H]-CP-55,940 (0.14 nM / Kd = 0.18 nM and 0.084nM / Kd =0.31 nM respectively for CB1 and CB2 receptor) as the high affinity ligand and displaced with 10 μM WIN 55212-2 as the heterologous competitor for non specific binding (Ki values 9.2 nM and 2.1 nM respectively for CB1 and CB2 receptor). All compounds were tested following the procedure described by the manufacturer (Perkin Elmer, Italy). Displacement curves were generated by incubating drugs with [3H]-CP-55,940 for 90 minutes at 30 C. Ki values were calculated by applying the Cheng-Prusoff equation to the IC50 values (obtained by GraghPad) for the displacement of the bound radioligand by increasing concentrations of the testcompound. Data are means±SEM of at least n=3 experiments.

Cannabinoid receptor 2 = Cannabinoid receptor 2 (Homo sapiens, UniProt P34972); experiment: Cannabinoid Receptor Binding Assay
Procedure: as §1

Cannabinoid receptor 1, sequence (P21554 whole entry): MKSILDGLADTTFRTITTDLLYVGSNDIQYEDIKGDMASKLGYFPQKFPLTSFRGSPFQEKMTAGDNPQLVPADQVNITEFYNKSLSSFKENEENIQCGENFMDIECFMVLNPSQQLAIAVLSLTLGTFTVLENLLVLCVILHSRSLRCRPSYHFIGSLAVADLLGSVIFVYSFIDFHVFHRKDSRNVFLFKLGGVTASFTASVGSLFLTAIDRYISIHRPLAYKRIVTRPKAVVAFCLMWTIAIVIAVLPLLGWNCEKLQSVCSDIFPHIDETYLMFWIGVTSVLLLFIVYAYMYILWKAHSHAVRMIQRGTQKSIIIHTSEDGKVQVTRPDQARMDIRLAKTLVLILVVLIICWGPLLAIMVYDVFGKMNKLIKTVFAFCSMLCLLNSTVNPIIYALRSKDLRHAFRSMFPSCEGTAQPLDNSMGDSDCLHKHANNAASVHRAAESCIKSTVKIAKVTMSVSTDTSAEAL
Cannabinoid receptor 2, sequence (P34972 whole entry): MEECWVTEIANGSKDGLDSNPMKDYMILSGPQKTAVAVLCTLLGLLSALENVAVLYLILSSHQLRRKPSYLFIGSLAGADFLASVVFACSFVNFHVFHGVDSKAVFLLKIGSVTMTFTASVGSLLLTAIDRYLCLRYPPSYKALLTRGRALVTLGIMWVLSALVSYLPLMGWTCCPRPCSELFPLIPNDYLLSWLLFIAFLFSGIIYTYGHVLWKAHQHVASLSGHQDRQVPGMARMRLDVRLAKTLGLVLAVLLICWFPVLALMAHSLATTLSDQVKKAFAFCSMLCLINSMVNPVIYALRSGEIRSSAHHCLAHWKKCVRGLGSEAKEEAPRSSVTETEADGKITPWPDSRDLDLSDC

CC(=O)Nc1ccc(OC(=O)CCC(=O)Nc2cccc3ccccc23)cc1 [4-Acetamidophenyl 4-(naphthalen-1-ylamino)-4-oxobutanoate (5c)]
> 10 µM: IC50 (Cannabinoid receptor 1) | Ki (Cannabinoid receptor 1) | IC50 (Cannabinoid receptor 2) | Ki (Cannabinoid receptor 2)

CC(=O)Nc1ccc(OC(=O)CCC(=O)/C=C/c2ccccc2)cc1 [(E)-4-Acetamidophenyl 4-oxo-6-phenylhex-5-enoate (3l)]
> 10 µM: IC50 (Cannabinoid receptor 1) | Ki (Cannabinoid receptor 1) | IC50 (Cannabinoid receptor 2) | Ki (Cannabinoid receptor 2)

CCC(C)(O)NC(=O)CCC(=O)/C=C/c1ccc(OC)c(OC)c1 (stereo not given) [(E)-6-(3,4-Dimethoxyphenyl)-N-(2-hydroxybutan-2-yl)-4-oxohex-5-enamide (3i)]
> 10 µM: IC50 (Cannabinoid receptor 1) | Ki (Cannabinoid receptor 1) | IC50 (Cannabinoid receptor 2) | Ki (Cannabinoid receptor 2)

CCC(C)(O)NC(=O)CCC(=O)/C=C/c1ccc(OCc2ccccc2)cc1 (stereo not given) [(E)-6-(4-(Benzyloxy)phenyl)-N-(2-hydroxybutan-2-yl)-4-oxohex-5-enamide (3j)]
> 10 µM: IC50 (Cannabinoid receptor 1) | Ki (Cannabinoid receptor 1) | IC50 (Cannabinoid receptor 2) | Ki (Cannabinoid receptor 2)

CCC(C)(O)NC(=O)CCC(=O)/C=C/c1ccc(-c2ccccc2)cc1 (stereo not given) [(E)-6-(Biphenyl-4-yl)-N-(2-hydroxybutan-2-yl)-4-oxohex-5-enamide (3m)]
> 10 µM: IC50 (Cannabinoid receptor 1) | Ki (Cannabinoid receptor 1) | IC50 (Cannabinoid receptor 2) | Ki (Cannabinoid receptor 2)

CCC(C)(O)NC(=O)CCC(=O)/C=C/c1ccc(N(C)C)cc1 (stereo not given) [(E)-6-[4-(Dimethylamino)phenyl]-N-(2-hydroxybutan-2yl)-4-oxohex-5-enamide (3g)]
> 10 µM: IC50 (Cannabinoid receptor 1) | Ki (Cannabinoid receptor 1) | IC50 (Cannabinoid receptor 2) | Ki (Cannabinoid receptor 2)

CCOC(=O)CNC(=O)CCC(=O)/C=C/c1ccc(OC)c(OC)c1 [(E)-Ethyl 2-(6-(3,4-dimethoxyphenyl)-4-oxohex-5-enamido)acetate (3h)]
> 10 µM: IC50 (Cannabinoid receptor 1) | Ki (Cannabinoid receptor 1) | IC50 (Cannabinoid receptor 2) | Ki (Cannabinoid receptor 2)

CCOC(=O)CNC(=O)CCC(=O)/C=C/c1ccc(OCc2ccccc2)cc1 [(E)-Ethyl 2-(6-(4-(benzyloxy)phenyl)-4-oxohex-5-enamido)acetate (3k)]
> 10 µM: IC50 (Cannabinoid receptor 1) | Ki (Cannabinoid receptor 1) | IC50 (Cannabinoid receptor 2) | Ki (Cannabinoid receptor 2)

O=C(/C=C/c1ccccc1)CCC(=O)NC(CO)(CO)CO [(E)-N-(1,3-Dihydroxy-2-(hydroxymethyl)propan-2-yl)-4-oxo-6-phenylhex-5-enamide (3b)]
> 10 µM: IC50 (Cannabinoid receptor 1) | Ki (Cannabinoid receptor 1) | IC50 (Cannabinoid receptor 2) | Ki (Cannabinoid receptor 2)

Cc1ccc(/C=C/C(=O)CCC(=O)NC(CO)(CO)CO)cc1 [(E)-N-(1,3-Dihydroxy-2-(hydroxymethylpropan-2-yl)-4-oxo-6-p-tolylhex-5-enamide (3e)]
> 10 µM: IC50 (Cannabinoid receptor 1) | Ki (Cannabinoid receptor 1) | IC50 (Cannabinoid receptor 2) | Ki (Cannabinoid receptor 2)

CCC(C)(O)NC(=O)CCC(=O)/C=C/c1ccc(C)cc1 (stereo not given) [(E)-N-(2-Hydroxybutan-2-yl)-4-oxo-6-p-tolylhex-5-enamide (3d)]
> 10 µM: IC50 (Cannabinoid receptor 1) | Ki (Cannabinoid receptor 1) | IC50 (Cannabinoid receptor 2) | Ki (Cannabinoid receptor 2)

CCC(C)(O)NC(=O)CCC(=O)/C=C/c1ccccc1 (stereo not given) [(E)-N-(2-Hydroxybutan-2-yl)-4-oxo-6-phenylhex-5-enamide (3a)]
> 10 µM: IC50 (Cannabinoid receptor 1) | Ki (Cannabinoid receptor 1) | IC50 (Cannabinoid receptor 2) | Ki (Cannabinoid receptor 2)

Cc1ccc(/C=C/C(=O)CCC(=O)Nc2ccc(O)cc2)cc1 [(E)-N-(4-Hydroxyphenyl)-4-oxo-6-p-tolylhex-5-enamide (3f)]
> 10 µM: IC50 (Cannabinoid receptor 1) | Ki (Cannabinoid receptor 1) | IC50 (Cannabinoid receptor 2) | Ki (Cannabinoid receptor 2)

CCOC(=O)CNC(=O)CCC(=O)Nc1cccc2ccccc12 [Ethyl 2-(4-(naphthalen-1-ylamino)-4-oxobutanamido)acetate (5b)]
> 10 µM: IC50 (Cannabinoid receptor 1) | Ki (Cannabinoid receptor 1) | IC50 (Cannabinoid receptor 2) | Ki (Cannabinoid receptor 2)

CCC(C)(O)NC(=O)CCC(=O)Nc1cccc2ccccc12 (stereo not given) [N-(2-Hydroxybutan-2-yl)-2-(4-naphthalen-1-ylamino)-4-oxobutanamide (5a)]
> 10 µM: IC50 (Cannabinoid receptor 1) | Ki (Cannabinoid receptor 1) | IC50 (Cannabinoid receptor 2) | Ki (Cannabinoid receptor 2)
